Measured values from patent publication US9029386B2, “Pyridine derivatives useful as kinase inhibitors” (YM Biosciences Australia Pty Ltd, priority 2006, dated 2015).

What was measured:
Type in all cases: biochemical
PDGFR β tyrosine kinase = molecular target: T1, PDGFR β tyrosine kinase (Homo sapiens, UniProt P09619); assay: Alphascreen protein tyrosine kinase assay, PDGFRβ
T1 construct: purchased Upstate Cell Signalling Solutions, CA, USA 14-463

Ret(h) = molecular target: T2, Ret(h) (Homo sapiens, UniProt P07949); assay: KinaseProfiler assay (Upstate), Ret
T2 construct: purchased Upstate Biotechnology (Dundee, UK), KinaseProfiler service
Experimental: (§1) Further enzyme assays were conducted at Upstate Biotechnology (Dundee, UK) in the KinaseProfiler™ Assay system.
(§2) The general protocol is as follows. All kinases are pre-diluted to a 10× working concentration prior to addition into the assay. The composition of the dilution buffer for the kinases is 20 mM MOPS pH 7.0, 1 mM EDTA, 0.1% β-mercaptoethanol, 0.01% Brij-35, 5% glycerol, 1 mg/ml BSA. All substrates are dissolved and diluted to working stocks in de-ionised water.
In a final reaction volume of 25 μl, Ret (h) (5-10 mU) is incubated with 8 mM MOPS pH 7.0, 0.2 mM EDTA, 250 μM […], 10 mM MgAcetate and [γ-33P-ATP] (specific activity approx. 500 cpm/pmol, concentration as required). The reaction is initiated by the addition of the MgATP mix. After incubation for 40 minutes at room temperature, the reaction is stopped by the addition of 5 μl of a 3% phosphoric acid solution. 10 μl of the reaction is then spotted onto a P30 filtermat and washed three times for 5 minutes in 75 mM phosphoric acid and once in methanol prior to drying and scintillation counting.

EphA2(h) = molecular target: T3, EphA2(h) (Homo sapiens, UniProt P29317); assay: KinaseProfiler assay (Upstate), EphA2
T3 construct: purchased Upstate Biotechnology (Dundee, UK), KinaseProfiler service
Experimental: as §1, §2
In a final reaction volume of 25 EphA2 (h) (5-10 mU) is incubated with 8 mM MOPS pH 7.0, 0.2 mM EDTA, 0.1 mg/ml poly(Glu, Tyr) 4:1, 10 mM MgAcetate and [γ-33P-ATP] (specific activity approx. 500 cpm/pmol, concentration as required). The reaction is initiated by the addition of the MgATP mix. After incubation for 40 minutes at room temperature, the reaction is stopped by the addition of 5 μl of a 3% phosphoric acid solution. 10 μl of the reaction is then spotted onto a Filtermat A and washed three times for 5 minutes in 75 mM phosphoric acid and once in methanol prior to drying and scintillation counting.

[1] = molecular target: T4, kinase domain of human c-kit (Homo sapiens, UniProt P10721); assay: Alphascreen protein tyrosine kinase assay, c-KIT
T4 construct: from codon M552 to end; made in house; host or cells: Sf9 insect cells (baculovirus)
Experimental: (§3) For screening purposes, compounds were diluted in 96 well plates at a concentration of 20 μM. Plates were warmed at 37° C. for 30 minutes before assay.
The kinase domain of human c-kit from codon M552 to end was cloned into the pDEST-20 expression vector (Invitrogen). The c-kit plasmid was then transformed into competent DH10Bac cells (Gibco), and the recombinant baculovirus produced prepared for transfection into Sf9 insect cells.
Baculovirus preparations from each of construct were infected into five liters of SF9 cells (Invitrogen) grown in SF-900 medium (Invitrogen) to a cell density of approximately 1−2×10^6 cells/ml. […] Cells were harvested and lysed. Tyrosine kinase domains were purified by affinity chromatography on a glutathione-agarose column (Scientifix Pty. Ltd. catalog #: GSH-200).
Kinase assays were performed in 384 well Optiplates (Packard) using an Alphascreen Protein Tyrosine Kinase kit. […] Alphascreen phosphotyrosine acceptor beads followed by streptavidin donor beads were added under subdued light. The Alphascreen plates were read on a Packard Fusion Alpha. Inhibitors were added to the assays thirty minutes prior to the addition of ATP. Inhibitors were added in aqueous DMSO, with DMSO concentrations never exceeding 1%.

KDR protein kinase = molecular target: T5, KDR protein kinase (Homo sapiens, UniProt P35968); assay: Alphascreen protein tyrosine kinase assay, KDR
T5 construct: purchased Millipore 14-630M
Experimental: as §3
FLT-3 and PDGFR β tyrosine kinase enzymes were purchased from Upstate Cell Signalling Solutions, CA, USA (flt-3 catalog #: 14-500 and PDGFR β catalog #: 14-463). KDR protein kinase enzyme was purchased from Millipore (catalogue #14-630M).
Kinase assays were performed in 384 well Optiplates (Packard) using an Alphascreen Protein Tyrosine Kinase kit. […] The biotinylated peptides Biotin-[…]-NH2 for c-KIT and PDGFRβ and Biotin-[…]-NH2 for CSF1-R and FLT-3 (final concentration 0.1-3 μM) were used as substrates. Alphascreen phosphotyrosine acceptor beads followed by streptavidin donor beads were added under subdued light. The Alphascreen plates were read on a Packard Fusion Alpha. Inhibitors were added to the assays thirty minutes prior to the addition of ATP. Inhibitors were added in aqueous DMSO, with DMSO concentrations never exceeding 1%.

EphA8(h) = molecular target: T6, EphA8(h) (Homo sapiens, UniProt P29322); assay: KinaseProfiler assay (Upstate), EphA8
T6 construct: purchased Upstate Biotechnology (Dundee, UK), KinaseProfiler service
T6 sequence (P29322 28-1005): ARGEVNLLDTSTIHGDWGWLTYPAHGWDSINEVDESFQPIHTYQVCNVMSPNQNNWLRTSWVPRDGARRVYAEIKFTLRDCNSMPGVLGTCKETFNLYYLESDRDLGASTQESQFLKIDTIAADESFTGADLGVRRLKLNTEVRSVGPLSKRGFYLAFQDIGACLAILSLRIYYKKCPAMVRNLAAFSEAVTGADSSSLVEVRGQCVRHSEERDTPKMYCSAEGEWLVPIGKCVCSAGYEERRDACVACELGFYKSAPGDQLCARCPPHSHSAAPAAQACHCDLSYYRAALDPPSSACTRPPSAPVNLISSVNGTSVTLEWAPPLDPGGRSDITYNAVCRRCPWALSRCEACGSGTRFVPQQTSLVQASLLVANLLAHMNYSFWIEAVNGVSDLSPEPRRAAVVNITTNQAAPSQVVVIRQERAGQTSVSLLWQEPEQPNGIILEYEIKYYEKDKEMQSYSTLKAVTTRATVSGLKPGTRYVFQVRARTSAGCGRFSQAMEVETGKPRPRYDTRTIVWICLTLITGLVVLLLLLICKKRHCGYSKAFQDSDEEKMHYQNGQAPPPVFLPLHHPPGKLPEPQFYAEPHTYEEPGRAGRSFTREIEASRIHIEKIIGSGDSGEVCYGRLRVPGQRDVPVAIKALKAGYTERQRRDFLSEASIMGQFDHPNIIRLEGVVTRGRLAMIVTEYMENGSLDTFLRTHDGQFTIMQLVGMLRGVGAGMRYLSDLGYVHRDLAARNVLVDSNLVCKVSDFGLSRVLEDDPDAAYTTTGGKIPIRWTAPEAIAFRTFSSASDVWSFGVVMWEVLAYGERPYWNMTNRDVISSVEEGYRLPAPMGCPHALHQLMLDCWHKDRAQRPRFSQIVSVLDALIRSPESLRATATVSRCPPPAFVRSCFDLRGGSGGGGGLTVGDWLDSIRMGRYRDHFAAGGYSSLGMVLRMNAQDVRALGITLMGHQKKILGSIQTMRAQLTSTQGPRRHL
Experimental: as §1, §2

T1 sequence (P09619 33-1106): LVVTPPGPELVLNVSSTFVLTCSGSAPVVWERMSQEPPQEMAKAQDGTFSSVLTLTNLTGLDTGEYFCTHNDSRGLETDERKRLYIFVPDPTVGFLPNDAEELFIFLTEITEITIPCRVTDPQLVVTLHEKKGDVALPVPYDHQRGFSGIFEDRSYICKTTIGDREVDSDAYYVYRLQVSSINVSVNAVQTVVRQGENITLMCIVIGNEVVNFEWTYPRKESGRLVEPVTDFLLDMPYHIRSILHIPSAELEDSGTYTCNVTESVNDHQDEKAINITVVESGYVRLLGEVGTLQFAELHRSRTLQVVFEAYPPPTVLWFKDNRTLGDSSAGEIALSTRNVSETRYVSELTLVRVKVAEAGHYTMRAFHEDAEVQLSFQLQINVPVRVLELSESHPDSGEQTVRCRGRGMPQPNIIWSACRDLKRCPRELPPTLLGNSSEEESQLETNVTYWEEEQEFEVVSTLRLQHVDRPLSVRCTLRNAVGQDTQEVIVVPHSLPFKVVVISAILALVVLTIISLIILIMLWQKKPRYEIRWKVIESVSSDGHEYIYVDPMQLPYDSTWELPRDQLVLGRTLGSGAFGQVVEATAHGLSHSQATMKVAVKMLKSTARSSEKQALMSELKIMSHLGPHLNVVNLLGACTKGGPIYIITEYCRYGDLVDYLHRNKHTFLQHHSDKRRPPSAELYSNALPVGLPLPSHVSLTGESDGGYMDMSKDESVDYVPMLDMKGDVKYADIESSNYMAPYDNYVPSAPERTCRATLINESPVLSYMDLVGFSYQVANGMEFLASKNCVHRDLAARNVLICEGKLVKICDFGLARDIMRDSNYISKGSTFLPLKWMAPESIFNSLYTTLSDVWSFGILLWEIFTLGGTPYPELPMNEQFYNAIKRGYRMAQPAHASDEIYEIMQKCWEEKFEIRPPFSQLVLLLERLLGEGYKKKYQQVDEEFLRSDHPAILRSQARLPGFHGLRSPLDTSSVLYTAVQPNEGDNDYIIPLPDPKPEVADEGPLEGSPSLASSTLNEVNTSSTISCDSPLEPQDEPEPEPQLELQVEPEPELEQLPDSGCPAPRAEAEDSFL
T5 sequence (P35968 20-1356): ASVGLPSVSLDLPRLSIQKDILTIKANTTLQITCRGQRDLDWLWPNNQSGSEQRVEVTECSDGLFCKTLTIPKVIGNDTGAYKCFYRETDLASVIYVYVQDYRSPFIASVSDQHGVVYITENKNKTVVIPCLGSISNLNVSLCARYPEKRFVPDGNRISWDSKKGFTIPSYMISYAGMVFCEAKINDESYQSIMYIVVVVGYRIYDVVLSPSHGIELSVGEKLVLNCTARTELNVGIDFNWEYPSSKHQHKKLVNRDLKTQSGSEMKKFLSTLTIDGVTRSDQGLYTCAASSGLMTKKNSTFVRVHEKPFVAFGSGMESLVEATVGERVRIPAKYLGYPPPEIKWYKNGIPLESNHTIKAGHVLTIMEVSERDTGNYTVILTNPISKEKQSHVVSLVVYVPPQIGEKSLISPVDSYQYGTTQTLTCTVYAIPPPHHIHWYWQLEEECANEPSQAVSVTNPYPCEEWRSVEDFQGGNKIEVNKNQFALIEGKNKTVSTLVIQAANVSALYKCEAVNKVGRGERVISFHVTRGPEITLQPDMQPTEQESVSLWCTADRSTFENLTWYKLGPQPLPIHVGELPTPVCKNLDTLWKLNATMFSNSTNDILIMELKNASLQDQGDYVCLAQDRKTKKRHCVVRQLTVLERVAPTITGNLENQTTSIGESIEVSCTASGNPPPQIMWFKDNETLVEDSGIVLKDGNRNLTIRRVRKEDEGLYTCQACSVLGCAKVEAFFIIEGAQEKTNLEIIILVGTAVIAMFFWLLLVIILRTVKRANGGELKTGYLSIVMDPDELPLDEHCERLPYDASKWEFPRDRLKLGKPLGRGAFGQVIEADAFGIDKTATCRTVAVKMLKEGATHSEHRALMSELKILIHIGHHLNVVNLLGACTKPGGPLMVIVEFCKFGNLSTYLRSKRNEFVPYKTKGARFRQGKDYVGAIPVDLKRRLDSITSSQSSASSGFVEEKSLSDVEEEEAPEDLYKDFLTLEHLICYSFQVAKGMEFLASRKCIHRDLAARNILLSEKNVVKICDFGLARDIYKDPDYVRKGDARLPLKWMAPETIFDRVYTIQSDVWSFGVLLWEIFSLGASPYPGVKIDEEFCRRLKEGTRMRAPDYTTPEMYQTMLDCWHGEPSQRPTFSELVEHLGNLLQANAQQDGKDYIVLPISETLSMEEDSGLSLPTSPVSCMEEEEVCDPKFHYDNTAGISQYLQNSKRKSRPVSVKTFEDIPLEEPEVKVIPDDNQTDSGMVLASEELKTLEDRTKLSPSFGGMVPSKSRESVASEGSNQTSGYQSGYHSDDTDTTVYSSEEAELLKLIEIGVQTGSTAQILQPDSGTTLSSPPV
T4 sequence (P10721 552-976 limits assumed): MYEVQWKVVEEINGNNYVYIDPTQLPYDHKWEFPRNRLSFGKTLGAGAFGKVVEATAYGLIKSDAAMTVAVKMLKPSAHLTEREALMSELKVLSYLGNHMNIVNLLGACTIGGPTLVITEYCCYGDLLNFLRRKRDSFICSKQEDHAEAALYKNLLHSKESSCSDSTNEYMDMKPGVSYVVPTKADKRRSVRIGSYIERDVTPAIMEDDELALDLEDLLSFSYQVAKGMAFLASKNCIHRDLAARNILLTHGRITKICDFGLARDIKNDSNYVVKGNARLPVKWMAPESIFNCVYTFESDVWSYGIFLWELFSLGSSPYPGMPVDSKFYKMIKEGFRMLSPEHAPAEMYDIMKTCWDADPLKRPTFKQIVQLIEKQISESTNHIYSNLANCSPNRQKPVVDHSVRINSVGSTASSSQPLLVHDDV
T2 sequence (P07949 29-1114): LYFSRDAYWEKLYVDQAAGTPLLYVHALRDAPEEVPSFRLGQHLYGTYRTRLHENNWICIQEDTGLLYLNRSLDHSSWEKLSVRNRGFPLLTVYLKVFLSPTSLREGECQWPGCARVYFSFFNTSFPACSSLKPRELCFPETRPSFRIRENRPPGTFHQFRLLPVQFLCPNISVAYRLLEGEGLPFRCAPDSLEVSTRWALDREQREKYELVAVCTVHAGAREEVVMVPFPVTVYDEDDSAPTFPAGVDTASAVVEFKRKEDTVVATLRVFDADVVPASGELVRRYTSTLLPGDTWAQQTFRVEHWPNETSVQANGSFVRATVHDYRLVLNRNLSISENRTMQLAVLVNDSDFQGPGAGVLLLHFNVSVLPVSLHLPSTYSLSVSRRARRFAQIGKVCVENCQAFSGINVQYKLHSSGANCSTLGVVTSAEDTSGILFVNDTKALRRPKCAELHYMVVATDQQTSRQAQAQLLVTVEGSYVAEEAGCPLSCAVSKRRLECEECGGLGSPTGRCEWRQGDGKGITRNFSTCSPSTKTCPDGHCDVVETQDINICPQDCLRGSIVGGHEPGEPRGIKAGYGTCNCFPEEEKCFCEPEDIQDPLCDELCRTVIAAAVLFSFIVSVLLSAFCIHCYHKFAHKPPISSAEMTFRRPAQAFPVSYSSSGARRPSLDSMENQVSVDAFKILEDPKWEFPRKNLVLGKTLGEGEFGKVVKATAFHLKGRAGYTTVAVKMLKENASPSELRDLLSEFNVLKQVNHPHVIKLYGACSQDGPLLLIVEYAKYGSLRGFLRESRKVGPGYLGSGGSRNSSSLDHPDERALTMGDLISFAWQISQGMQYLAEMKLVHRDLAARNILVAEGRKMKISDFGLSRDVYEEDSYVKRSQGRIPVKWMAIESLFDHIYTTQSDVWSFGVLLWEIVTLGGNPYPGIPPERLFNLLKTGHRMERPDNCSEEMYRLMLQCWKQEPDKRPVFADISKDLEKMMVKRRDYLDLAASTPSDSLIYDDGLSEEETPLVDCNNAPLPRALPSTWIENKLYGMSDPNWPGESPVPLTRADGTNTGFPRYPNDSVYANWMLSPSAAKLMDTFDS
T3 sequence (P29317 24-976): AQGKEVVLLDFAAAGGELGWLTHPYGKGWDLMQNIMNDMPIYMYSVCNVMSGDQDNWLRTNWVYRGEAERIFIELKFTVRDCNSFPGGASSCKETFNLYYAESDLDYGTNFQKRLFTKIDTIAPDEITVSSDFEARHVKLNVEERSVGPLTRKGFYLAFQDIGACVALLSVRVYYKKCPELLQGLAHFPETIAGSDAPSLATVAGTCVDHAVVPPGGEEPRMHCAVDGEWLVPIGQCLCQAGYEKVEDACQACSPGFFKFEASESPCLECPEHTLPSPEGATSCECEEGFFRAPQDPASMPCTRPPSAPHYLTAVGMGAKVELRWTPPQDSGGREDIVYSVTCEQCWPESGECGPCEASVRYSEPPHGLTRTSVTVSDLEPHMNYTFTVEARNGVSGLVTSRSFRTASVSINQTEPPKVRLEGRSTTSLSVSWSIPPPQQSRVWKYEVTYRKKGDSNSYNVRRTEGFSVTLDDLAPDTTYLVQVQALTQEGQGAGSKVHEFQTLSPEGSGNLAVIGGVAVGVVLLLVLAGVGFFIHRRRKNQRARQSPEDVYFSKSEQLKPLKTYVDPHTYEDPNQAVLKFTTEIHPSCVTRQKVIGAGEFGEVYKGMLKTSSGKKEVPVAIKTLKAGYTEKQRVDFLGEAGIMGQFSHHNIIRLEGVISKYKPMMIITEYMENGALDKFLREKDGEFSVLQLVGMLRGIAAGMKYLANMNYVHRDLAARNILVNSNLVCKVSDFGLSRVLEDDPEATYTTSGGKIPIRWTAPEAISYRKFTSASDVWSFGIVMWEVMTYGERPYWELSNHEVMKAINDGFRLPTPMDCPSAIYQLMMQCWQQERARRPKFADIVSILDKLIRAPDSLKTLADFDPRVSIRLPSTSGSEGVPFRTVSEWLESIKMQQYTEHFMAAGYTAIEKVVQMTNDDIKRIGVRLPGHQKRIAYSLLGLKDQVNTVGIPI

Row | Compound | IC50 (PDGFR β tyrosine kinase) [µM] | inhibition at 0.1 µM (Ret(h)) [%] | inhibition at 1 µM (Ret(h)) [%] | inhibition at 0.1 µM (EphA2(h)) [%] | inhibition at 1 µM (EphA2(h)) [%] | IC50 [1] [µM] | IC50 (KDR protein kinase) [µM] | inhibition at 0.1 µM (EphA8(h)) [%] | inhibition at 1 µM (EphA8(h)) [%]
1 | Cc1cccc(C(=O)Nc2cccc([C@H](C)Nc3cncc(-c4ccc(S(N)(=O)=O)cc4)n3)c2)c1 [Compound 77] | < 1 | 22 | 67 | 87 | 102 | < 0.1 | < 0.1 | 66 | 99
2 | C[C@H](Nc1cncc(Cl)n1)c1cccc(NC(=O)c2cccc(C(F)(F)F)c2)c1 [Compound 114, (S)—N-(3-(1-(6-chloropyrazin-2-ylamino)ethyl)phenyl)-3-(trifluoromethyl)benzamide] | < 0.1 | 66 | 95 | 96 | 101 | < 1 | < 0.1 | 67 | 97
3 | Cc1cccc(C(=O)Nc2cccc([C@H](C)Nc3cncc(-c4ccc(N5CCN(C)CC5)cc4)n3)c2)c1 [Compound 129] | < 0.1 | 19 | 75 | 24 | 93 | < 0.1 | < 0.1 | 42 | 90
4 | Cc1cccc(C(=O)Nc2cccc([C@H](C)Nc3cncc(C(N)=O)n3)c2)c1 [Compound 133, (S)-6-(1-(3-(3-methylbenzamido)phenyl)ethylamino)pyrazine-2-carboxamide] | < 0.1 | 1 | 36 | 69 | 99 | < 0.1 | < 0.1 | 7 | 64

Other lines, results leading:

Row | IC50 (PDGFR β tyrosine kinase) [µM] | inhibition at 0.1 µM (Ret(h)) [%] | inhibition at 1 µM (Ret(h)) [%] | inhibition at 0.1 µM (EphA2(h)) [%] | inhibition at 1 µM (EphA2(h)) [%] | IC50 [1] [µM] | IC50 (KDR protein kinase) [µM] | inhibition at 0.1 µM (EphA8(h)) [%] | inhibition at 1 µM (EphA8(h)) [%] | Compound
5 | < 0.1 | 8 | 58 | 80 | 99 | < 0.1 | < 0.1 | 30 | 82 | Cc1cccc(C(=O)Nc2cccc([C@H](C)Nc3cncc(-n4ccnc4)n3)c2)c1 [Compound 143, (S)—N-(3-(1-(6-(1H-imidazol-1-yl)pyrazin-2-ylamino)ethyl)phenyl)-3-methylbenzamide]
6 | < 0.1 | 68 | 92 | 97 | 102 | < 0.1 | < 0.1 | 71 | 98 | Cc1cccc(C(=O)Nc2cccc([C@H](C)Nc3cncc(-c4cccc(N5CCOCC5)c4)n3)c2)c1 [Compound 147]
7 | < 0.1 | 89 | 96 | 93 | 102 | < 0.1 | < 0.1 | 81 | 100 | C[C@H](Nc1cncc(-c2ccc(N3CCN(C)CC3)cc2)n1)c1cccc(NC(=O)c2cccc(C(F)(F)F)c2)c1 [Compound 148]
8 | < 0.1 | 89 | 96 | 96 | 102 | < 1 | < 0.1 | 81 | 103 | C[C@H](Nc1cncc(-c2cccc(N3CCOCC3)c2)n1)c1cccc(NC(=O)c2cccc(C(F)(F)F)c2)c1 [Compound 149]
9 |  | 39 | 95 | 102 | 103 |  |  | 91 | 102 | Cc1cccc(C(=O)Nc2ccc(C)c([C@H](C)Nc3cncc(Cl)n3)c2)c1 [Compound 168]
